This note sets out measurements from US7264948B2, “Polypeptides for increasing mutant CFTR channel activity” (University of Pittsburgh, priority 2002, dated 2007).

In one assay the test system is human airway cells. In words: Organelle distribution of PTD-5-avidin-β-gal, gradient ultracentrifugation and β-gal activity. Type of assay: cell-based. Particulars: 37° C., purified organelles, FIG. 5. The procedure:
To test the distribution of PTD5 facilitating uptake into human airway cells, the ability of PTD5 to deliver β-gal protein to a variety of cell organelles was examined by separation of organelles using gradient ultra-centrifugation. PTD-5-avidin-β-gal and a control peptide, (Con.P)-avidin-β-gal, were added to the media bathing the airway cell cultures and incubated at 37° C. Three hours post-addition of the complexes, the cells were washed extensively and collected for organelle isolation by gradient ultracentrifugation. The purified cell organelles were tested for β-gal activity using a Galacto-light kit (Tropix, Inc.).

A further assay concerns mouse lungs. In words: Intra-tracheal delivery of PTD5 streptavidin-Cy3 complexes into mouse lungs, two-photon microscopy. Type of assay: in vivo. Particulars: 50 μl of 200 μM, three hours post-injection, FIG. 3. Here is the method: To determine if the PTDs can facilitate protein uptake by mouse lungs, the PTD5 streptavidin-Cy3 complexes were delivered into mouse lungs intra-tracheally. The treated mice were sacrificed three hours post-delivery and tissue from the lungs was scanned by two-photon microscopy. 50 μl of 200 μM solution of the PTD-5-β-Cy3 was injected intra-tracheally into mouse lungs. Three hours post-injection, the mice were sacrificed, and the lungs were analyzed by two photon confocal microscopy for internalization. A control peptide (Con.P)-Cy3 was used as a control.

Assay [1] concerns the target T1, interaction of Hdj2 and ΔF508 CFTR (Homo sapiens, UniProt P31689).
T1 construct: endogenous in cells; host or cells: KK bronchial epithelial cell line (lysate)
In words: Co-immunoprecipitation of Hdj2 with CFTR in KK cell lysate treated with fusion protein. Type of assay: binding. The procedure:
To test whether PTD-5 ΔF508NBD1-RD could inhibit interaction of Hdj2 and ΔF508 CFTR, KK cells, a bronchial epithelial cell line carrying the ΔF508 mutation, were lysed with a lysis buffer, the lysate was treated with PTD5-NBD1-ΔF-RD and equal amount lysates were used to perform immunoprecipitation (IP) using CFTR antibodies, M3A7 (1 μg) and L12B4 (1 μg) and protein […] beads. The precipitants were washed five times with lysis buffer. Hjd2 that co-precipitated with CFTR was fractionated by SDS-PAGE, transferred to PVDF membrane and detected by immunoblotting (IB).

The test system of a further assay is ΔF508 CFTR. In words: Whole cell patch clamp of forskolin-stimulated currents. Particulars: primary human airway (HBE) cells, four hours treatment, 5-10 μM forskolin, 37° C. For orientation: Patch clamp records ionic current or voltage across a cell membrane.
In assay [2] the test system is Calu3 cells and human bronchial epithelial cells (KK). Description: PTD-5-facilitated delivery of streptavidin-Cy3, confocal microscopy. Type of assay: cell-based. Particulars: three hours, 37° C., FIG. 2. Here is the method: (§1) To determine whether the PTD5 polypeptide (RRQRRTSKLMKR) was able to facilitate uptake into different cell types including differentiated airway epithelial cells and Calu3 cells, the ability of PTD5 to deliver avidin-β-Gal and streptavidin Cy3 to human airway cells and Calu3 cells was examined.
PTD-5 was also coupled to streptavidin-Cy 3, which was added to Calu3 cell and human bronchial epthelial cells (KK) cultures at 37° C. (FIG. 2). A peptide (Con.P)-strepavdin-Cy3 was used as a control. Three hours post addition of the PTD-5-streptavidin-Cy 3, the intracellular localization of the red (Cy 3) fluorescent signals were visualized by confocal microscopy. The nuclei were counterstained using cytox green.

Assay [3] relates to primary human airway epithelial cells (HBE144), polarized canine kidney cells (MDCK) and other cell types. Description: PTD-5-facilitated delivery of avidin-β-gal complex, X-gal staining. Particulars: 150 nM PTD-5-avidin-β-gal complex, three hours, FIG. 1. Type of assay: cell-based. Here is the method:
as §1
PTD-5 is a positively charged transduction peptide, which was biotinylated so that it can be coupled to avidin marker complexes. 150 nM of the PTD-5-avidin-β-gal complex was added to the cell culture media of various cell lines (FIG. 1). Three hours post addition of the complex, the indicated cells were fixed and stained with X-gal.

Ends that are not written are not given here.

With “ARPLEHGSDKAT (control, Con P) [reference compound]”, the “delivery of avidin-β-gal complex to cell organelles (β-gal activity)” value in the assay with human airway cells is on record as “did not localize to any of the organelles”. Moreover, the “Cy3 signal in lungs” value in the assay with mouse lungs is listed as “weak signals”.
“PTD5-ΔF508 NBD1/RD fusion protein: inline fusion of PTD-5 with the ΔF508 CFTR NBD1-RD region, histidine tag, expressed in E. coli, nickel column purified”: the “interaction of Hdj2 with ΔF508 CFTR (co-immunoprecipitation)” value is on record as “capable of inhibiting the interaction of Hdj2 with the ΔF508 CFTR protein” in assay [1] (listed as PTD5 ΔF508NBD1-RD fusion protein) and “disrupts ΔF508 CFTR interaction with chaperone Hdj2” in assay [1] (listed as PTD-5-ΔF508 NBD1-RD). The “forskolin-stimulated whole cell currents” value with ΔF508 CFTR was “forskolin-stimulated currents typical of those associated with CFTR”.
For the substance “RRQRRTSKLMKR (also: biotinylated (position not given here)) [PTD-5, biotinylated for coupling to avidin marker complexes]”, the “delivery of avidin-β-gal complex to cell organelles (β-gal activity)” value with human airway cells was “able to deliver the avidin-β-gal complex to ER, Golgi, mitochondria, and nuclei”. The “delivery of streptavidin-Cy3 complex into cells (confocal microscopy)” value in assay [2] is listed as “delivered the streptavidin-Cy3 complex”. The “delivery of avidin-β-gal complex into cells (X-gal staining)” value in assay [3] is “able to deliver the avidin-β-gal complex”. The “Cy3 signal in lungs” value in the assay with mouse lungs is on record as “significant Cy3 signal”.
